Experimental data: publication PMC10726465, “Synthesis and Evaluation of Small Molecule Inhibitors of the Androgen Receptor N-Terminal Domain” (ACS Medicinal Chemistry Letters, 2023)
Read-outs that look alike come from different tables or passages of the source.

Target: T1, androgen receptor (AR) (Homo sapiens, UniProt P10275)
T1 sequence (P10275 1-920): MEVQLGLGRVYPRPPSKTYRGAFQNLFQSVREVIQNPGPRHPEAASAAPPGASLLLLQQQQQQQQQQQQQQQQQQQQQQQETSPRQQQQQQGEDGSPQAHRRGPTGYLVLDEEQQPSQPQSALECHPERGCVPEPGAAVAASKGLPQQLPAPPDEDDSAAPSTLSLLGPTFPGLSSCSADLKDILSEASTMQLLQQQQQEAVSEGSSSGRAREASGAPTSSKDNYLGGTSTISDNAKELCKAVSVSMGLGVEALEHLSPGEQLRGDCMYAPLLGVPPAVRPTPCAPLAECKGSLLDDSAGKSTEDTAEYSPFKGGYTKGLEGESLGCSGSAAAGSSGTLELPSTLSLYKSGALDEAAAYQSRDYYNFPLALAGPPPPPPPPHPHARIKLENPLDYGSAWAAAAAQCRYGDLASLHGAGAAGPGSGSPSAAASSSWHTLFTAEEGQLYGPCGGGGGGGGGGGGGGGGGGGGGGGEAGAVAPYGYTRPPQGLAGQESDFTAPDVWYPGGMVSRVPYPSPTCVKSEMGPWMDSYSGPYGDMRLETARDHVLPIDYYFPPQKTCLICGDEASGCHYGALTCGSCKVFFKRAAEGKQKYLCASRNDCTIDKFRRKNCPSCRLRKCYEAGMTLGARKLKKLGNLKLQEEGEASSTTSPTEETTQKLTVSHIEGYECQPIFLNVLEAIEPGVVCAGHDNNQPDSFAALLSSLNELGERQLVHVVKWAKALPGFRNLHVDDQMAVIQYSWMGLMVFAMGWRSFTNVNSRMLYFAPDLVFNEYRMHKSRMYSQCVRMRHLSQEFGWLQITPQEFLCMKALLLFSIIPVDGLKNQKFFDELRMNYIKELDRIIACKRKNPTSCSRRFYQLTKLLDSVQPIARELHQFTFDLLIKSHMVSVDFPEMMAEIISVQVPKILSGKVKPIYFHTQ
Conditions: for Ligand Efficiency (LE): from VCaP GRE2-luciferase IC50; for Lipophilic Ligand Efficiency (LLE): from VCaP GRE2-luciferase IC50 and cLogP

[1] = read-out: VCaP GRE2-luciferase IC50, VCaP cells, 1 nM DHT, 24 h, 0–30 µM compound

Procedure: VCaP cells, obtained from the American Type Culture Collection, were maintained in Dulbecco’s Modified Eagles Medium (DMEM) supplemented with 10% foetal bovine serum. Cells were maintained at 37°C without antibiotics in a humidified atmosphere
Transient transfection and Luciferase Activity Assay:
Cells at 70–80% confluence in 24 well plates, were transferred to DMEM
300ng/well of the firefly reporter plasmid, GRE2-TATA-luc using JetPEI (PolyPLUS Transfection) according to the manufacturers’ protocol.
replaced with fresh DMEM +5% CSS containing either DMSO (vehicle control) or 0– 30 µM small molecules together with 1nM DHT. Twenty four hours later, medium was aspirated, cells were washed with PBS and extracted with Passive Lysis Buffer
Cell debris was removed by centrifugation at 13,000 xg for 5min and supernatants collected. Luciferase activity was measured in triplicate, using an in-house luciferase assay buffer (13 mM MgSO4 7H2O, 30 mM
amount of total cellular protein.
Inhibition of hormone-dependent expression of prostate specific antigen (PSA):
VCaP prostate cells were treated with 1 nM DHT in the absence or presence of inhibitor. After 24 hours cells were harvested and PSA detected by Western blotting and normalised against β-actin.
Luciferase activity in cells treated with small molecules was determined as a percentage of the untreated control, which was set at 100%. Plots of activity against small molecule concentration (log) were analysed in GraphPad PRISM 5 and IC50 values for each small molecule determined.

## CSc1ccc(C(N)=O)cc1-c1ccno1 [Compound 7]
  Ligand Efficiency (LE): 0.70
  Lipophilic Ligand Efficiency (LLE): 6.7
[1]
  IC50: 7.4 µM

## CSc1ccc(C(N)=O)cc1-c1ccccc1 [Compound 8]
VCaP cells, 1 nM DHT
  activity in VCaP GRE2-luciferase assay (in words): inactive
  Ligand Efficiency (LE): 0.61
  Lipophilic Ligand Efficiency (LLE): 4.6
[1]
  IC50: > 30 µM

## CSc1ccc(C(N)=O)cc1-c1cccs1 [Compound 9]
  Ligand Efficiency (LE): 0.79
  Lipophilic Ligand Efficiency (LLE): 6.3
[1]
  IC50: 0.6 µM

## CSc1ccc(C(N)=O)cc1-c1c(C)noc1C [Compound 10]
  Ligand Efficiency (LE): 0.63
  Lipophilic Ligand Efficiency (LLE): 6.2
[1]
  IC50: 4.7 µM

## CSc1ccc(C(N)=O)cc1-c1ccc[nH]1 [Compound 11]
VCaP cells, 1 nM DHT
  activity in VCaP GRE2-luciferase assay (in words): no activity
  Lipophilic Ligand Efficiency (LLE): 5.8
[1]
  IC50: > 30 µM

## CSc1ccc(C(N)=O)cc1-c1ccc2[nH]ncc2c1 [Compound 12]
  Ligand Efficiency (LE): 0.59
  Lipophilic Ligand Efficiency (LLE): 6.6
[1]
  IC50: 0.7 µM

## CSc1ccc(C(N)=O)cc1-c1ccc2[nH]ccc2c1 [Compound 13]
VCaP GRE2-luciferase IC50 ratio
  decrease in activity relative to indazole 12: 10 fold
  Ligand Efficiency (LE): 0.54
  Lipophilic Ligand Efficiency (LLE): 5.1
[1]
  IC50: 10.3 µM

## CSc1ccc(C(N)=O)cc1-c1ccc2cn[nH]c2c1 [Compound 14]
  Ligand Efficiency (LE): 0.63
  Lipophilic Ligand Efficiency (LLE): 7.1
[1]
  IC50: 2.2 µM

## CSc1ccc(C(N)=O)cc1-c1ccc2[nH]cnc2c1 [Compound 15]
  Ligand Efficiency (LE): 0.62
  Lipophilic Ligand Efficiency (LLE): 6.6
[1]
  IC50: 0.92 µM

## CSc1ccc(C(N)=O)cc1-c1ccc2c(ccn2C)c1 [Compound 17]
  Ligand Efficiency (LE): 0.66
  Lipophilic Ligand Efficiency (LLE): 7.0
[1]
  IC50: 0.09 µM

## CSc1ccc(C(N)=O)cc1-c1ccc2nccn2c1 [Compound 18]
VCaP cells, 1 nM DHT
  activity in VCaP GRE2-luciferase assay (in words): no activity
  Ligand Efficiency (LE): 0.52
  Lipophilic Ligand Efficiency (LLE): 5.7
[1]
  IC50: > 30 µM

## CSc1ccc(C(N)=O)cc1-c1cccc2c1CC(=O)N2 [Compound 19]
VCaP cells, 1 nM DHT
  activity in VCaP GRE2-luciferase assay (in words): no activity
  Ligand Efficiency (LE): 0.49
  Lipophilic Ligand Efficiency (LLE): 5.5
[1]
  IC50: > 30 µM

## CSc1ccc(C(N)=O)cc1-c1ccc2ncccc2c1 [Compound 20]
  Ligand Efficiency (LE): 0.59
  Lipophilic Ligand Efficiency (LLE): 5.9
[1]
  IC50: 0.8 µM

## CSc1ccc(C(N)=O)cc1-c1ccc2cnccc2c1 [Compound 21]
  IC50: 0.9 µM
  Ligand Efficiency (LE): 0.59
  Lipophilic Ligand Efficiency (LLE): 6.0

## CSc1ccc(C(N)=O)cc1-c1cccnc1 [Compound 22]
VCaP cells, 1 nM DHT
  activity in VCaP GRE2-luciferase assay (in words): loss of activity
  Ligand Efficiency (LE): 0.61
  Lipophilic Ligand Efficiency (LLE): 5.6
[1]
  IC50: > 30 µM

## CSc1ccc(C(N)=O)cc1-c1ccncc1 [Compound 23]
VCaP cells, 1 nM DHT
  activity in VCaP GRE2-luciferase assay (in words): loss of activity
  Ligand Efficiency (LE): 0.61
  Lipophilic Ligand Efficiency (LLE): 5.6
[1]
  IC50: > 30 µM

## CSc1ccc(C(N)=O)cc1-c1cncnc1 [Compound 24]
  Ligand Efficiency (LE): 0.77
  Lipophilic Ligand Efficiency (LLE): 8.2
[1]
  IC50: 0.27 µM

## CSc1ccc(C(N)=O)cc1-c1ccc2occc2c1 [Compound 25]
  Ligand Efficiency (LE): 0.63
  Lipophilic Ligand Efficiency (LLE): 5.9
[1]
  IC50: 0.6 µM

## CSc1ccc(C(N)=O)cc1-c1ccc2ocnc2c1 [Compound 26]
  Ligand Efficiency (LE): 0.52
  Lipophilic Ligand Efficiency (LLE): 4.6
[1]
  IC50: > 30 µM

## CSc1ccc(C(N)=O)cc1-c1ccc2c(c1)CCO2 [Compound 27]
  Ligand Efficiency (LE): 0.52
  Lipophilic Ligand Efficiency (LLE): 4.4
[1]
  IC50: > 30 µM

## COc1ccc(-c2cc(C(N)=O)ccc2SC)cc1OC [Compound 28]
VCaP cells, 1 nM DHT
  activity in VCaP GRE2-luciferase assay (in words): Activity was abolished
  Ligand Efficiency (LE): 0.49
  Lipophilic Ligand Efficiency (LLE): 4.8
[1]
  IC50: > 30 µM

## COc1ccc(-c2cc(C(N)=O)ccc2SC)cc1F [Compound 29]
  Ligand Efficiency (LE): 0.63
  Lipophilic Ligand Efficiency (LLE): 6.2
[1]
  IC50: 0.76 µM

## COc1cc(-c2cc(C(N)=O)ccc2SC)ccc1N [Compound 30]
VCaP cells, 1 nM DHT
  activity in VCaP GRE2-luciferase assay (in words): loss of activity
  Ligand Efficiency (LE): 0.52
  Lipophilic Ligand Efficiency (LLE): 5.4
[1]
  IC50: > 30 µM

## CSc1ccc(C(N)=O)cc1-c1cccc(O)c1F [Compound 31]
VCaP cells, 1 nM DHT
  activity in VCaP GRE2-luciferase assay (in words): inactive
  Ligand Efficiency (LE): 0.54
  Lipophilic Ligand Efficiency (LLE): 4.9
[1]
  IC50: > 30 µM

## CSc1ccc(C(N)=O)cc1-c1cc(O)cc(F)c1 [Compound 32]
VCaP cells, 1 nM DHT
  activity in VCaP GRE2-luciferase assay (in words): inactive
  Ligand Efficiency (LE): 0.54
  Lipophilic Ligand Efficiency (LLE): 4.9
[1]
  IC50: > 30 µM

## CSc1ccc(C(N)=O)cc1-c1ccc(F)c(O)c1 [Compound 33]
  Ligand Efficiency (LE): 0.72
  Lipophilic Ligand Efficiency (LLE): 7.3
[1]
  IC50: 0.12 µM

## CSc1ncc(C(N)=O)cc1-c1ccc2c(cnn2C)c1 [Compound 34]
VCaP cells, 1 nM DHT
  activity in VCaP GRE2-luciferase assay (in words): loss of activity
  Ligand Efficiency (LE): 0.49
  Lipophilic Ligand Efficiency (LLE): 6.2
[1]
  IC50: > 30 µM

## Cn1ncc2cc(-c3cc(C(N)=O)cnc3SCc3ccccc3)ccc21 [Compound 35]
  Ligand Efficiency (LE): 0.38
  Lipophilic Ligand Efficiency (LLE): 4.7
[1]
  IC50: > 30 µM

## Cn1ncc2cc(-c3cncc(C(N)=O)c3)ccc21 [Compound 36]
  Ligand Efficiency (LE): 0.54
  Lipophilic Ligand Efficiency (LLE): 6.7
[1]
  IC50: > 30 µM

## COc1ncc(C(N)=O)cc1-c1ccc2c(cnn2C)c1 [Compound 37]
  Ligand Efficiency (LE): 0.49
  Lipophilic Ligand Efficiency (LLE): 6.5
[1]
  IC50: > 30 µM

## CSc1c(F)cc(C(N)=O)cc1-c1ccc2c(cnn2C)c1 [Compound 38]
  Ligand Efficiency (LE): 0.60
  Lipophilic Ligand Efficiency (LLE): 7.3
[1]
  IC50: 0.24 µM

## CSc1cc(C(N)=O)cc(-c2ccc3c(cnn3C)c2)c1 [Compound 39]
VCaP cells, 1 nM DHT
  activity in VCaP GRE2-luciferase assay (in words): inactive
  Ligand Efficiency (LE): 0.49
  Lipophilic Ligand Efficiency (LLE): 5.3
[1]
  IC50: > 30 µM

## Cn1ncc2cc(-c3cc(C(N)=O)ccc3SCc3ccccc3)ccc21 [Compound 40]
  Ligand Efficiency (LE): 0.44
  Lipophilic Ligand Efficiency (LLE): 4.9
[1]
  IC50: 2.2 µM

## Cc1ccc(C(N)=O)cc1-c1ccc2c(cnn2C)c1 [Compound 41]
VCaP cells, 1 nM DHT
  activity in VCaP GRE2-luciferase assay (in words): loss of activity
  Ligand Efficiency (LE): 0.52
  Lipophilic Ligand Efficiency (LLE): 5.4
[1]
  IC50: > 30 µM

## CCc1ccc(C(N)=O)cc1-c1ccc2c(cnn2C)c1 [Compound 42]
VCaP cells, 1 nM DHT
  activity in VCaP GRE2-luciferase assay (in words): loss of activity
  Ligand Efficiency (LE): 0.49
  Lipophilic Ligand Efficiency (LLE): 5.0
[1]
  IC50: > 30 µM

## Cn1ncc2cc(-c3cccc(C(N)=O)c3)ccc21 [Compound 43]
VCaP cells, 1 nM DHT
  activity in VCaP GRE2-luciferase assay (in words): no bioactivity
  Ligand Efficiency (LE): 0.54
  Lipophilic Ligand Efficiency (LLE): 5.7
[1]
  IC50: > 30 µM

## Cn1ncc2cc(-c3cc(C(N)=O)ccc3F)ccc21 [Compound 44]
VCaP cells, 1 nM DHT
  activity in VCaP GRE2-luciferase assay (in words): inactive
  Ligand Efficiency (LE): 0.52
  Lipophilic Ligand Efficiency (LLE): 5.6
[1]
  IC50: > 30 µM

## Cn1ncc2cc(-c3cc(C(N)=O)ccc3C(F)(F)F)ccc21 [Compound 45]
  Ligand Efficiency (LE): 0.48
  Lipophilic Ligand Efficiency (LLE): 5.4
[1]
  IC50: 8.6 µM

## COc1ccc(C(N)=O)cc1-c1ccc2c(cnn2C)c1 [Compound 46]
  Ligand Efficiency (LE): 0.49
  Lipophilic Ligand Efficiency (LLE): 5.8
[1]
  IC50: > 30 µM

## Cn1ncc2cc(-c3cc(C(N)=O)ccc3OCc3ccccc3)ccc21 [Compound 47]
  Ligand Efficiency (LE): 0.38
  Lipophilic Ligand Efficiency (LLE): 4.4
[1]
  IC50: > 30 µM

## Cn1ncc2cc(-c3cc(C(N)=O)ccc3OC(F)(F)F)ccc21 [Compound 48]
  Ligand Efficiency (LE): 0.43
  Lipophilic Ligand Efficiency (LLE): 4.6
[1]
  IC50: > 30 µM

## Cn1ncc2cc(-c3cc(C(N)=O)ccc3O)ccc21 [Compound 49]
VCaP cells, 1 nM DHT
  activity in VCaP GRE2-luciferase assay (in words): lack of activity
  Ligand Efficiency (LE): 0.52
  Lipophilic Ligand Efficiency (LLE): 6.1
[1]
  IC50: > 30 µM

## Cn1ncc2cc(-c3cc(C(N)=O)ccc3OCC3CC3)ccc21 [Compound 50]
VCaP cells, 1 nM DHT
  activity in VCaP GRE2-luciferase assay (in words): inactive
  Ligand Efficiency (LE): 0.43
  Lipophilic Ligand Efficiency (LLE): 5.1
[1]
  IC50: > 30 µM

## CC(C)COc1ccc(C(N)=O)cc1-c1ccc2c(cnn2C)c1 [Compound 51]
VCaP cells, 1 nM DHT
  activity in VCaP GRE2-luciferase assay (in words): inactive
  Ligand Efficiency (LE): 0.43
  Lipophilic Ligand Efficiency (LLE): 4.7
[1]
  IC50: > 30 µM
